This note sets out measurements from ChEMBL document CHEMBL4823278, “Metal binding 6-arylthio-3-hydroxypyrimidine-2,4-diones inhibited human cytomegalovirus by targeting the pUL89 endonuclease of the terminase complex” (Eur J Med Chem, 2021).

The target of series [1] is T1, Tripartite terminase subunit 3 (Human betaherpesvirus 5) (UniProt P16732).
T1 sequence (whole entry): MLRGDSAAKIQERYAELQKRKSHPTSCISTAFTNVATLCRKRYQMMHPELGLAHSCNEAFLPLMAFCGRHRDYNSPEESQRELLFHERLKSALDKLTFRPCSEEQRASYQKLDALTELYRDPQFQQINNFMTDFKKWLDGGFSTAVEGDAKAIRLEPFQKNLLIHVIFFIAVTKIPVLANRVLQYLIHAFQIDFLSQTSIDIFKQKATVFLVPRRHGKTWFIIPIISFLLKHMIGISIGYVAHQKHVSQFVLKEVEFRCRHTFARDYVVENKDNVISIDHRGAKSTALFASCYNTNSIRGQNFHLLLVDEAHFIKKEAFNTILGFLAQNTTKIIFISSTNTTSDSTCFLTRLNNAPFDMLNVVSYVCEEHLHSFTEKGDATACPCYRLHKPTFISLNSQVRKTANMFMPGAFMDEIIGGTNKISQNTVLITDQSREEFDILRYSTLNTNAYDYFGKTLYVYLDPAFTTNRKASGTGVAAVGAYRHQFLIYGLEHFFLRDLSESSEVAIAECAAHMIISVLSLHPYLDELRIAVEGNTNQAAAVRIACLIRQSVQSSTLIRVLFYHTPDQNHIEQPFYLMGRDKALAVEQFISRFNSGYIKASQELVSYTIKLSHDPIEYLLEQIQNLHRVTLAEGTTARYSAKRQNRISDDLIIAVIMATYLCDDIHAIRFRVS
Kind of series: Inhibition of human cytomegalovirus pUL89 endonuclease activity using 60 bp dsDNA substrate at 20 uM incubated for 30 mins by ELISA-based biochemical assay relative to control. A general note: In an ELISA, binding on a coated surface is turned into a signal by an enzyme label.

Series [2] deals with Human betaherpesvirus 5. It counts as functional, cell-based. To be noted: Human betaherpesvirus 5, HEL 299, 168 h.
Series [3] in a line: Cytotoxicity against human HEL 299 cells assessed as cell viability at 10 uM incubated for 168 hrs by MTS-based tetrazolium reduction assay relative to control. The conditions noted are these: HEL 299 cells, read-out: Activity. For orientation: Tetrazolium assays rely on reduction of a dye to a coloured formazan, in cell work by metabolically active cells.
In series [4] the test system is Human betaherpesvirus 5. It counts as functional. The conditions noted are these: Human betaherpesvirus 5, HEL 299, time 168 hrs.
The test system of a further series is HEL 299. The conditions noted are these: human, hel 299, 168 h.
Series [5] is described as follows: Apparent permeability of the compound incubated for 5 hrs by LC-MS/MS analysis based PAMPA method. Format: ADME. To be noted: PAMPA.

A word on the inhibition: it is the share of the control response that was lost under treatment. By EC50 is commonly meant the concentration giving half of the maximal effect. The low end stands for a more potent agent, the high end for a less potent agent. Consider `Cn1c(Sc2cccc(Cl)c2)cc(=O)n(O)c1=O`, for which, in series [1], the inhibition turned out to be 37%. In addition, the EC50 in the series on Human betaherpesvirus 5 [2] turned out to be 4.7 µM. The viability at 168 h, 10 µM in series [3] came to 117%. Besides, in the series on Human betaherpesvirus 5 [4], testing at 10 µM gave an inhibition of 74%. The CC50 in the series with HEL 299 was determined as 23.1 µM.
In general, Papp refers to the rate of passage across a membrane or cell layer, normalised by area and donor concentration. For `COc1ccc(-c2ccc(Sc3cc(=O)n(O)c(=O)[nH]3)cc2)cc1`, the inhibition in series [1] is 22%. The molecule further displayed a concentration for a half-maximal effect (EC50) with Human betaherpesvirus 5 [2] of 7.2 µM. The apparent permeability coefficient (Papp) at 5 h in series [5] was determined as 1.1 ×10⁻⁶ cm/s. Further, in series [3], the viability at 168 h, 10 µM turned out to be 94%. The inhibition at 10 µM with Human betaherpesvirus 5 [4] was 80%. Besides, the CC50 with HEL 299 amounted to 20.3 µM.
